This is an account of results in ChEMBL document CHEMBL5108051, “Improving the Antimicrobial Performance of Amphiphilic Cationic Antimicrobial Peptides Using Glutamic Acid Full-Scan and Positive Charge Compensation Strategies” (J Med Chem, 2022).

For data set [1], the system named is Staphylococcus aureus. In words: Antibacterial activity against Staphylococcus aureus ATCC 25923 assessed as fold increase in MIC measured after 15 passages by resistance development assay. In kind it is functional.
Data set [2] deals with Escherichia coli. The data set is described as follows: Antibacterial activity against Escherichia coli ATCC 25922 assessed as fold increase in MIC measured after 15 passages by resistance development assay relative to control. In kind it is functional.
Data set [3] has as its system Staphylococcus aureus. In words: Antibacterial activity against Staphylococcus aureus ATCC 25923 assessed as growth inhibition measured after 18 to 24 hrs by CLSI based broth microdilution method. Format: functional. To be noted: time 18-24 hrs. (In general: Broth dilution looks for growth in wells or tubes with falling amounts of substance.)
A further data set relates to Erythrocyte. In words: Hemolytic activity against mouse RBC measured after 1 hrs. In kind it is toxicity, cell-based.
Data set [4] concerns Escherichia coli. The data set is described as follows: Antibacterial activity against Escherichia coli ATCC 25922 assessed as growth inhibition measured after 18 to 24 hrs by CLSI based broth microdilution method. Format: functional. To be noted: time 18-24 hrs.
The subject of another data set is Pseudomonas aeruginosa. The data set is described as follows: Antibacterial activity against Pseudomonas aeruginosa ATCC 27853 assessed as growth inhibition measured after 18 to 24 hrs by CLSI based broth microdilution method. In kind it is functional. To be noted: time 18-24 hrs.
The subject of the next data set is Klebsiella pneumoniae. In words: Antibacterial activity against Klebsiella pneumoniae ATCC 700603 assessed as growth inhibition measured after 18 to 24 hrs by CLSI based broth microdilution method. In kind it is functional. To be noted: time 18-24 hrs.
The subject of a further data set is Bacillus subtilis. In words: Antibacterial activity against Bacillus subtilis ATCC 23857 assessed as growth inhibition measured after 18 to 24 hrs by CLSI based broth microdilution method. Format: functional. To be noted: time 18-24 hrs.
For data set [5], the system named is Staphylococcus aureus. In words: Antimicrobial activity against Staphylococcus aureus ATCC 25923 in presence of FeCl3. Format: functional, organism-based.
Data set [6] deals with Cell membrane. The data set is described as follows: Induction of cell membrane disruption in Staphylococcus aureus ATCC 25923 assessed as increase in PI uptake measured after 30 to 120 mins by propidium iodide staining based FACS flow cytometry analysis (reference value: 15%). Format: subcellular. To be noted: time 30-120 min.
For data set [7], the system named is Staphylococcus aureus. In words: Antimicrobial activity against Staphylococcus aureus ATCC 25923 in presence of KCl. In kind it is functional, organism-based.
Data set [8] relates to Staphylococcus aureus. The data set is described as follows: Antimicrobial activity against Staphylococcus aureus ATCC 25923 in presence of NaCl. Format: functional, organism-based.
Data set [9] relates to Staphylococcus aureus. In words: Antimicrobial activity against Staphylococcus aureus ATCC 25923 in presence of MgCl2. Format: functional, organism-based.
Data set [10] can be described thus: Stability of compound in serum measured after 1 to 6 hrs by RP-HPLC analysis. To be noted: time 1-6 hrs. Format: ADME, cell-free.
Data set [11] has as its system Cell membrane. The data set is described as follows: Induction of cell membrane disruption in Escherichia coli ATCC 25922 assessed as increase in PI uptake measured after 30 to 120 mins by propidium iodide staining based FACS flow cytometry analysis (reference value: 6.0 %). To be noted: time 30-120 min. In kind it is subcellular. (Flow cytometry measures light scatter and fluorescence of single cells or particles in a stream.)

Data set [12] has as its system Escherichia coli. The data set is described as follows: Antimicrobial activity against Escherichia coli ATCC 25922 in presence of MgCl2. Format: functional, organism-based.
In data set [13] the test system is Staphylococcus aureus. In words: Antimicrobial activity against Staphylococcus aureus ATCC 25923 assessed as increase fold in increase MIC in presence of FeCl3. Format: functional.
In data set [14] the test system is Staphylococcus aureus. In words: Antimicrobial activity against Staphylococcus aureus ATCC 25923 assessed as fold increase in MIC in presence of NaCl. Format: functional.
Data set [15] relates to Escherichia coli. In words: Antimicrobial activity against Escherichia coli ATCC 25922 in presence of KCl. Format: functional, organism-based.
Data set [16] relates to Escherichia coli. In words: Antimicrobial activity against Escherichia coli ATCC 25922 in presence of NaCl. In kind it is functional, organism-based.
The subject of data set [17] is Staphylococcus aureus. In words: Antimicrobial activity against Staphylococcus aureus ATCC 25923 assessed as fold increase in MIC in presence of KCl. In kind it is functional.
Data set [18] can be described thus: Cytotoxicity against human Glomerular mesenchymal cell assessed as reduction in cell viability at 0 to 128 uM incubated for 1 hr by Resazurin cell viability kit. To be noted: glomerular mesenchymal cells, dose 0-128 µM. Format: toxicity, cell-based.
The test system of data set [19] is Staphylococcus aureus. The data set is described as follows: Antimicrobial activity against Staphylococcus aureus ATCC 25923 assessed as fold increase in MIC in presence of MgCl2. Format: functional.

Converted amounts (≈) assume the structure as drawn. The source made the active and inactive calls. No cut-off for these calls is given here. Peptide text beside a SMILES is read from it.

Take GENTAMICIN: the fold change (FC) was determined as 512 in the data set on Staphylococcus aureus [1] and 128 in the data set on Escherichia coli [2].
On to `CC[C@H](C)[C@H](NC(=O)[C@H](CCC(=O)O)NC(=O)[C@H](CC(C)C)NC(=O)[C@@H](N)Cc1ccccc1)C(=O)N[C@H](C(=O)N[C@@H](C)C(=O)N[C@@H](CCCCN)C(=O)N[C@@H](CC(C)C)C(=O)N[C@@H](CC(C)C)C(=O)N[C@@H](CO)C(=O)NCC(=O)N[C@@H](CC(C)C)C(=O)N[C@@H](CC(C)C)C(N)=O)C(C)C` (H-FLEIVAKLLSGLL-NH2), for which the MIC in the data set on Staphylococcus aureus [3] was 16 µM (≈ 22.6 µg/mL); in the data set with Escherichia coli [4], more than 128 µM; in the data set with Pseudomonas aeruginosa, more than 128 µM; in the data set on Klebsiella pneumoniae, more than 128 µM; in the data set on Bacillus subtilis, 16 µM (≈ 22.6 µg/mL). Further, the MHC10 in the data set on Erythrocyte came to 16.06 µM.
Regarding `CO[C@H]1/C=C/O[C@@]2(C)Oc3c(C)c(O)c4c(O)c(c(/C=N/N5CCN(C)CC5)c(O)c4c3C2=O)NC(=O)/C(C)=C\C=C\[C@H](C)[C@H](O)[C@@H](C)[C@@H](O)[C@@H](C)[C@H](OC(C)=O)[C@@H]1C` [RIFAMPIN], the “fold change (FC)” value with Staphylococcus aureus [1] was 4096; in the data set with Escherichia coli [2], 16. For the same molecule, the MIC with Staphylococcus aureus [3] was less than 1 µM; in the data set with Escherichia coli [4], 4 µM (≈ 3.29 µg/mL); in the data set on Pseudomonas aeruginosa, 32 µM (≈ 26.3 µg/mL); in the data set with Klebsiella pneumoniae, 32 µM (≈ 26.3 µg/mL); in the data set with Bacillus subtilis it was less than 1 µM. Further, the result in the data set with Staphylococcus aureus [5], with Staphylococcus aureus [7], in the data set on Staphylococcus aureus [8] and with Staphylococcus aureus [9] was Active. For the same molecule, the Activity with Cell membrane [6] came to 3.45%; with Cell membrane [11], 17.4%. Moreover, the Stability entry in data set [10] was “Stable”.
Regarding `CC(C)C[C@H](NC(=O)[C@H](CC(C)C)NC(=O)[C@H](CCCCN)NC(=O)[C@H](CCC(=O)O)NC(=O)[C@H](CC(C)C)NC(=O)[C@H](CC(C)C)NC(=O)[C@H](CCCCN)NC(=O)[C@H](C)NC(=O)[C@@H](NC(=O)[C@H](CCCCN)NC(=O)[C@@H]1CCCN1C(=O)[C@H](CC(C)C)NC(=O)[C@@H](N)Cc1ccccc1)C(C)C)C(N)=O` (H-FLPKVAKLLEKLL-NH2), the outcome in the data set with Escherichia coli [12], in the data set with Escherichia coli [15] and with Escherichia coli [16] was Active. Moreover, the MIC in the data set with Staphylococcus aureus [3] stood at 8 µM (≈ 12.1 µg/mL); with Escherichia coli [4], 8 µM (≈ 12.1 µg/mL); in the data set on Pseudomonas aeruginosa, 16 µM (≈ 24.2 µg/mL); in the data set on Klebsiella pneumoniae, 32 µM (≈ 48.4 µg/mL); with Bacillus subtilis it was 8 µM (≈ 12.1 µg/mL). The “fold change (FC)” value in the data set with Staphylococcus aureus [13], with Staphylococcus aureus [14], with Staphylococcus aureus [17] and in the data set on Staphylococcus aureus [19] was 2 in each case. The same molecule had an MHC10 in the data set on Erythrocyte of more than 256 µM. Besides, in [18], the CC50 at 1 h was more than 128 µM.
On to `CC[C@H](C)[C@H](NC(=O)[C@@H]1CCCN1C(=O)[C@H](CC(C)C)NC(=O)[C@@H](N)Cc1ccccc1)C(=O)N[C@H](C(=O)N[C@@H](C)C(=O)N[C@@H](CCCCN)C(=O)N[C@@H](CC(C)C)C(=O)N[C@@H](CC(C)C)C(=O)N[C@@H](CCCCN)C(=O)NCC(=O)N[C@@H](CC(C)C)C(=O)N[C@@H](CC(C)C)C(N)=O)C(C)C` (H-FLPIVAKLLKGLL-NH2), for which the MIC with Staphylococcus aureus [3] is 8 µM (≈ 11.4 µg/mL); with Escherichia coli [4], more than 128 µM; in the data set on Pseudomonas aeruginosa, more than 128 µM; with Klebsiella pneumoniae, more than 128 µM; in the data set on Bacillus subtilis it was 4 µM (≈ 5.7 µg/mL). The molecule also came in with an MHC10 in the data set on Erythrocyte of 27.66 µM.
Take `CC[C@H](C)[C@H](NC(=O)[C@@H]1CCCN1C(=O)[C@H](CC(C)C)NC(=O)[C@@H](N)Cc1ccccc1)C(=O)N[C@H](C(=O)N[C@@H](C)C(=O)N[C@@H](CCCCN)C(=O)N[C@@H](CC(C)C)C(=O)N[C@@H](CC(C)C)C(=O)N[C@@H](CO)C(=O)NCC(=O)N[C@@H](CC(C)C)C(=O)N[C@@H](CCC(=O)O)C(N)=O)C(C)C` (H-FLPIVAKLLSGLE-NH2): the MIC with Staphylococcus aureus [3], with Escherichia coli [4], with Pseudomonas aeruginosa, with Klebsiella pneumoniae and in the data set on Bacillus subtilis was more than 128 µM throughout. In the data set with Erythrocyte, this molecule displayed an MHC10 of more than 256 µM.
On to `CC[C@H](C)[C@H](NC(=O)[C@@H]1CCCN1C(=O)[C@H](CC(C)C)NC(=O)[C@@H](N)Cc1ccccc1)C(=O)N[C@H](C(=O)N[C@@H](CCC(=O)O)C(=O)N[C@@H](CCCCN)C(=O)N[C@@H](CC(C)C)C(=O)N[C@@H](CC(C)C)C(=O)N[C@@H](CO)C(=O)NCC(=O)N[C@@H](CC(C)C)C(=O)N[C@@H](CC(C)C)C(N)=O)C(C)C` (H-FLPIVEKLLSGLL-NH2), for which the MIC was more than 128 µM in the data set with Staphylococcus aureus [3]; 64 µM (≈ 92.2 µg/mL) with Escherichia coli [4]; more than 128 µM in the data set on Pseudomonas aeruginosa; more than 128 µM with Klebsiella pneumoniae; more than 128 µM in the data set with Bacillus subtilis. Moreover, in the data set on Erythrocyte, the MHC10 was more than 256 µM.
For `CC[C@H](C)[C@H](NC(=O)[C@@H]1CCCN1C(=O)[C@H](CC(C)C)NC(=O)[C@@H](N)Cc1ccccc1)C(=O)N[C@H](C(=O)N[C@@H](C)C(=O)N[C@@H](CCCCN)C(=O)N[C@@H](CC(C)C)C(=O)N[C@@H](CC(C)C)C(=O)N[C@@H](CO)C(=O)NCC(=O)N[C@@H](CCC(=O)O)C(=O)N[C@@H](CC(C)C)C(N)=O)C(C)C` (H-FLPIVAKLLSGEL-NH2), the MIC in the data set with Staphylococcus aureus [3], in the data set on Escherichia coli [4], with Pseudomonas aeruginosa, in the data set on Klebsiella pneumoniae and in the data set on Bacillus subtilis was more than 128 µM in each case. Further, in the data set with Erythrocyte, the MHC10 was more than 256 µM.
In the case of `CC[C@H](C)[C@H](NC(=O)[C@@H]1CCCN1C(=O)[C@H](CCC(=O)O)NC(=O)[C@@H](N)Cc1ccccc1)C(=O)N[C@H](C(=O)N[C@@H](C)C(=O)N[C@@H](CCCCN)C(=O)N[C@@H](CC(C)C)C(=O)N[C@@H](CC(C)C)C(=O)N[C@@H](CO)C(=O)NCC(=O)N[C@@H](CC(C)C)C(=O)N[C@@H](CC(C)C)C(N)=O)C(C)C` (H-FEPIVAKLLSGLL-NH2), the MIC in the data set with Staphylococcus aureus [3], in the data set on Escherichia coli [4], in the data set with Pseudomonas aeruginosa, in the data set on Klebsiella pneumoniae and in the data set with Bacillus subtilis was more than 128 µM throughout. Further, the MHC10 with Erythrocyte is more than 256 µM.

The MIC is the least concentration at which growth counts as inhibited. For orientation: CC50 means the concentration that lowers cell viability or growth by half.
